Data set [1] is described as follows: Comparative bioavailability: pharmacokinetic parameters for Compound 1 in rat plasma and blood after single iv and oral doses of its esters. The following applies: for AUC0-t / AUC0-∞ / CL / Vd / t½ / Cmax / Oral Bioavailability / Tmax: mean ± SEM. The data set is classed as in vivo, male Sprague Dawley rats. The protocol: Three adult male Sprague Dawley rats are used in each treatment group. The rats are fasted overnight prior to oral dose administration. Intravenous (IV) administration is via the lateral tail vein and oral doses are administered by gavage. The compound is administered iv or orally in a vehicle of phosphate buffered saline.
For blood collection, each rat (unanesthetized) is placed in a clear Plexiglas® restraining tube, and blood samples (approximately 0.25 mL) are drawn from a lateral tail vein into heparinized collection tubes at predetermined sampling times (0.083, 0.25, 0.5, 1, 2, 4, and 6 hours post dose). No pre-dose samples are obtained. The exception to this procedure is the last sampling time in which the animals are sacrificed by decapitation and trunk blood is obtained rather than blood via a tail vein. The blood samples are placed on wet ice until centrifuged to separate plasma. The whole blood and the plasma fraction are transferred into clean dry tubes, frozen on dry ice and stored at approximately −20° C. pending analysis.
Blood or plasma is prepared for high performance liquid chromatography (HPLC)/mass spectrometric analysis according to standard protocol following protein precipitation with acetonitrile containing an internal standard. The blood or plasma samples are then analyzed for Compound 1 and alprenolol (internal standard) via HPLC coupled with tandem mass spectrometry.
The blood and plasma concentration data for all rats are entered into Excel spreadsheets in preparation for pharmacokinetic analysis. Pharmacokinetic parameters for Compound 1 are estimated for each rat by non-compartmental analysis (Gibaldi M, Perrier D. Pharmacokinetics, 2nd edition, Marcel Dekker, New York, Chapter 11, 1982) of the blood or plasma concentration versus time data using WinNonlin software (Professional Version 4.1a, Pharsight Corporation, Palo Alto, Calif., 2003).
The maximum blood or plasma concentration (Cmax) is the highest observed concentration after an oral dose; tmax is the corresponding time when Cmax is observed. The terminal rate constant for elimination from blood or plasma (β) is estimated by linear regression of the terminal portion of the semi-logarithmic plasma concentration versus time curve. The apparent terminal half-life (t1/2) is calculated as 0.693 divided by β. The area under the blood or plasma concentration versus time curve from time zero to the time of the last measurable concentration (AUC0-t) after a single dose is determined by the linear trapezoidal rule. The area from zero to infinity (AUC0-∞) is calculated as the sum of AUC0-t and the area extrapolated from the last measurable concentration to infinity (Clast/β). Concentrations pre dose are all assumed to be zero for the purpose of calculation of the AUC. Oral bioavailability is determined by dividing the dose normalized oral AUC0-∞ by the […] from iv dosing and multiplying by 100 to express the ratio as a percent.
The mean±SEM. pharmacokinetic parameters for Compound 1 in male Sprague Dawley rats administered as single iv and oral doses of the citric acid ester of Compound 1 (“Form 1” or “Form 2”) or the diethanolamine ester of Compound 1 (“DEA Adduct”; i.e., boronic ester of Formula X) are shown in Tables 5-10 and corresponding FIGS. 5-10.

A short description of data set [2]: Storage for approximately one year at ambient indoor temperature and humidity, HPLC purity. The data set is classed as physicochemical. As to conditions: in a vial at the rear of a fume hood. The protocol:
A 100 mL three neck round bottom flask equipped with a stir bar, thermocouple and nitrogen inlet is charged with 6.0 g (16.6 mmol) of Compound 1 (98.5A % purity) and 60 mL of ethyl acetate then stirred for five minutes at room temperature to dissolve the solids. Diethanol amine (1.68 g, 16.0 mmol) is charged and solids begin to form when addition is only ⅔ complete. The white slurry is stirred at room temperature for two hours and then the solids are collected by vacuum filtration, washed with 50 mL of ethyl acetate and dried overnight in a vacuum oven at 40° C. A quantitative yield of the desired product is obtained as a crystalline solid with an HPLC purity of 99.7A %. After storing for approximately one (1) year at ambient indoor temperature and humidity (in a vial at the rear of a fume hood), the HPLC purity was 99.9A %. ^1H NMR (d6-DMSO, 400 MHz) δ 8.8 (t, 1H, J=5.88 Hz), 7.55 (s, 2H), 7.52 (s, 1H), 6.99 (d, 1H, J=8.36 Hz), 6.57 (s, b, 1H), 3.85 (dq, 1H, J=16.1, 5.92 Hz), 3.69 (m, 2H), 3.57 (m, 1H), 3.14 (m, 1H), 2.99 (m, 2H), 2.75 (m, 1H), 2.69 (m, 1H), 1.59 (m, 1H), 1.31 (m, 1H), 1.22 (m, 1H), 0.824 (d, 3H, J=6.64 Hz), 0.797 (D, 3 h, J=6.48 Hz)
A 15 mL one neck round bottom flask equipped with a stir bar and nitrogen inlet is charged with 0.5 g (1.39 mmol) of Compound 1 (98.5A % purity) and 5 mL of ethyl acetate then stirred for five minutes at room temperature to dissolve the solids. Diisopropanolamine (185 mg, 1.39 mmol) is charged and stirred at room temperature. The white precipitate is collected by vacuum filtration, washed with 5 mL of ethyl acetate and dried overnight under nitrogen on the filter to give 410 mg (0.895 mmol, 64%) of the desired product with an HPLC purity of 99.4A %. […]

A short description of data set [3]: Storage stability in freezer / under ambient conditions. The data set is classed as physicochemical. An excerpt: Compound 1 is obtained as a non-crystalline solid using the process set forth in US 2009/0325903. Compound 1 is obtained as a mixture of monomer and the trimer anhydride N,N′,N″-boroxin-2,4,6-triyltris {{(1R)-3-methylbutane-1,1-diyl]imino(2-oxoethane-2,1-diyl)]}tris(2,5-dichlorobenzamide) (H NMR analysis).
The citric acid ester of Compound 1 (4-(R,S)-(carboxymethyl)-2-((R)-1-(2-(2,5-dichlorobenzamido)acetamido)-3-methylbutyl)-6-oxo-1,3,2-dioxaborinane-4-carboxylic acid) is obtained as a crystalline solid (Form 1 or Form 2) using the process set forth in US 2009/0325903. The citric acid ester of Compound 1 is stable when stored in the freezer.

Setting [4] is: Compound 1 in blood, 0.3 mg/kg IV.
[5] abbreviates: Compound 1 in blood, 1 mg/kg IV.
[6] abbreviates: Compound 1 in blood, 1 mg/kg PO.
Setting [7] is: Compound 1 in blood, 3 mg/kg PO.
Where [8] appears, read: Compound 1 in plasma, 0.3 mg/kg IV.
The mark [9] stands for this setting: Compound 1 in plasma, 1 mg/kg IV.
Setting [10] is: Compound 1 in plasma, 1 mg/kg PO.
[11] abbreviates: Compound 1 in plasma, 3 mg/kg PO.

The record followed here is US20140121182A1, “PROTEASOME INHIBITORS AND PROCESSES FOR THEIR PREPARATION, PURIFICATION AND USE” (Cephalon, Inc., priority 2011, published 2014).

Turning to “2,5-Dichloro-N—[(R)-1-[1,3,6,2]dioxazaborocan-2-yl-3-methyl-butylcarbamoyl)methyl]-benzamide [boronic ester of Formula X]”, in data set [1] (setting [4]), the AUC0-t came to 168 ± 46 ng·h/mL, the “AUC0-∞” value came to 190 ± 45 ng·h/mL, the CL is recorded as 30 ± 6 mL/min/kg and the Vd was determined as 5.8 ± 1.9 L/kg. In addition, the t½ (usually how long it takes for the measured level to halve) in data set [1] (setting [4]) was 2.2 ± 0.4 h. Also, in data set [1] (setting [5]), the AUC0-t is 509 ± 89 ng·h/mL, the “AUC0-∞” value is 535 ± 100 ng·h/mL, the CL stood at 33 ± 6 mL/min/kg and the Vd is 3.9 ± 0.7 L/kg. In data set [1] (setting [5]), this compound showed a t½ of 1.4 ± 0.2 h. For the same compound, in data set [1] (setting [6]), the AUC0-t turned out to be 166 ± 16 ng·h/mL, the “AUC0-∞” value is 200 ± 17 ng·h/mL, the Cmax (usually the maximum level reached in the sampled fluid or tissue) was determined as 92 ± 39 ng/mL and the “Oral Bioavailability” value is reported as 32 ± 1%. Also, in data set [1] (setting [6]), the Tmax (usually the time from dosing to the highest level) came out at 0.3 ± 0.1 h and the t½ was determined as 2.8 h. In data set [1] (setting [7]), the AUC0-t came to 336 ± 69 ng·h/mL, the “AUC0-∞” value was 381 ± 78 ng·h/mL, the highest concentration (Cmax) is 205 ± 84 ng/mL and the “Oral Bioavailability” value is 23 ± 4%. Also, in data set [1] (setting [7]), the Tmax came out at 0.8 ± 0.6 h and the t½ came out at 1.7 ± 0.2 h. In data set [1] (setting [8]), the AUC0-t is 449 ± 256 ng·h/mL, the “AUC0-∞” value came to 457 ± 254 ng·h/mL, the CL worked out at 20 ± 9 mL/min/kg and the Vd was 0.9 ± 0.3 L/kg. In addition, in data set [1] (setting [8]), the t½ was 0.6 ± 0.1 h. In addition, in data set [1] (setting [9]), the AUC0-t was 1225 ± 42 ng·h/mL, the “AUC0-∞” value was found to be 1240 ± 47 ng·h/mL, the CL is recorded as 13 ± 1 mL/min/kg and the Vd turned out to be 1.2 ± 0.1 L/kg. Besides, the t½ in data set [1] (setting [9]) was found to be 1.1 ± 0.1 h. Also, in data set [1] (setting [10]), the AUC0-t was 170 ± 16 ng·h/mL, the “AUC0-∞” value amounted to 182 ± 17 ng·h/mL, the peak concentration (Cmax) was 179 ± 39 ng/mL and the “Oral Bioavailability” value is given as 12 ± 1%. Further, in data set [1] (setting [10]), the Tmax was determined as 0.3 ± 0.1 h. Also, in data set [1] (setting [11]), the AUC0-t is 990 ± 310 ng·h/mL, the “AUC0-∞” value is 1029 ± 299 ng·h/mL, the Cmax came to 567 ± 185 ng/mL and the “Oral Bioavailability” value amounted to 27 ± 8%. Further, in data set [1] (setting [11]), the Tmax was 0.5 ± 0.0 h and the t½ was 1.1 ± 0.1 h. Besides, the “oral bioavailability (conclusion in words)” value in data set [1] (conclusion from Tables 5-10) is listed as “orally bioavailable”. The “HPLC purity after storing for approximately one (1) year” value (from here on “HPLC purity after storing”) in data set [2] turned out to be 99.9 A %.
Take `CC(C)C[C@H](NC(=O)CNC(=O)c1cc(Cl)ccc1Cl)B1OC(=O)CC(CC(=O)O)(C(=O)O)O1` (mixture of isomers) [citric acid ester of Compound 1, 4-(R,S)-(carboxymethyl)-2-((R)-1-(2-(2,5-dichlorobenzamido)acetamido)-3-methylbutyl)-6-oxo-1,3,2-dioxaborinane-4-carboxylic acid, reference compound]: the storage stability entry in data set [3] (stored in the freezer) is listed as “stable”.
In the case of `CC(C)C[C@H](NC(=O)CNC(=O)c1cc(Cl)ccc1Cl)B1OC(=O)CN(C)CC(=O)O1` [2,5-Dichloro-N—{[(R)-3-methyl-1-(6-methyl-4,8-dioxo-[1,3,6,2]dioxazaborocan-2-yl)-butylcarbamoyl]-methyl}benzamide], the “HPLC purity after storing” value in data set [2] was 84.4 A %.
For the compound `CC(C)C[C@H](NC(=O)CNC(=O)c1cc(Cl)ccc1Cl)B(O)O` [Compound 1, [(1R)-1-({[(2,5-dichlorobenzoyl)amino]acetyl}amino)-3-methylbutyl]boronic acid], the storage stability result in data set [3] (ambient conditions) is “not storage stable”; in data set [3] (stored in the freezer), “stable”.
As for `CC(C)C[C@H](NC(=O)CNC(=O)c1cc(Cl)ccc1Cl)B1OC(C)CNCC(C)O1` (stereo partly drawn) [boronic ester of Formula IX, 2,5-Dichloro-N-{[(R)-1-(4,8-dimethyl-[1,3,6,2]dioxazaborocan-2-yl)-3-methyl-butylcarbamoyl]-methyl}benzamide], the “HPLC purity after storing” value in data set [2] was determined as 99.8 A %.
